# Activity calls are given as the source filed them. No cut-off for these calls is given here.
# How the values were obtained:
# RAW264.7 [1] = assay: Anti-inflammatory activity in LPS-stimulated mouse RAW264.7 cells assessed as reduction in IL-6 production incubated for 24 hrs by ELISA; assay type: functional, cell-based; details: dose 0.62-5 µM
# [2] = molecular target: T1, Myeloblastin (Mus musculus) (UniProt Q61096); assay: In vivo inhibition of proteinase 3 in C57BL/6 mouse assessed as reduction in proteinase 3 activity in bone marrow at 30 mg/kg, po administered once daily for 6 days by fluorescence based microplate reader relative to control; assay type: functional, organism-based; details: time 6.0 day
# T1 sequence (whole entry): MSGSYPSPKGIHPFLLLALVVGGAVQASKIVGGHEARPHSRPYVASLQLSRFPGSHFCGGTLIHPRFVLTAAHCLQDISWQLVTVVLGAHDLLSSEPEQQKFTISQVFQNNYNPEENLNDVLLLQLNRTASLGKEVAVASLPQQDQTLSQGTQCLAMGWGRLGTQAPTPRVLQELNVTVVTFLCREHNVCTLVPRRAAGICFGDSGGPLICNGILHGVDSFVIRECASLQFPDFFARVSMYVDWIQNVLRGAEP
# [3] = molecular target: T2, Dipeptidyl peptidase 1 (Mus musculus) (UniProt P97821); assay: In vivo inhibition of Cathepsin C in C57BL/6 mouse assessed as reduction in cathepsin C activity in bone marrow at 30 mg/kg, po administered once daily for 6 days by fluorescence based microplate reader relative to control; assay type: functional, organism-based; details: time 6.0 day
# T2 sequence (whole entry): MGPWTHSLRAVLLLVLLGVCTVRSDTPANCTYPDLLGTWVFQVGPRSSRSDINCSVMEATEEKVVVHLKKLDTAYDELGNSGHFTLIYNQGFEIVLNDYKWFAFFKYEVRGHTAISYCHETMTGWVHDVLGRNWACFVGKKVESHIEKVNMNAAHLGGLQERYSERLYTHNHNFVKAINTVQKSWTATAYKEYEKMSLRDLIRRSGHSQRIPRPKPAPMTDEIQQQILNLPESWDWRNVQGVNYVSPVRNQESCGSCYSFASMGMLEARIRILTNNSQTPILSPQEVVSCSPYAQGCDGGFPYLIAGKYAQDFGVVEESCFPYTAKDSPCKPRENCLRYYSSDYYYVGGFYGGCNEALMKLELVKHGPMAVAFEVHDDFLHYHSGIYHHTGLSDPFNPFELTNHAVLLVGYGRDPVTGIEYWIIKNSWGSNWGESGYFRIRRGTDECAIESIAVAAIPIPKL
# Mus musculus [4] = assay: Anti-inflammatory activity in DSS-induced ulcerative colitis male C57BL/6 mouse model at 60 mg/kg administered twice daily; assay type: functional, organism-based
# Mus musculus [5] = assay: Anti-inflammatory activity in DSS-induced ulcerative colitis male C57BL/6 mouse model assessed as reduction in neutrophil elastase level in colon at 60 mg/kg administered via gavage for 10 days relative to control; assay type: functional; design: scale not given: the % may be the effect or the level left; details: time 10 day
# Mus musculus [6] = assay: Anti-inflammatory activity in DSS-induced ulcerative colitis male C57BL/6 mouse model assessed as reduction in neutrophil elastase level in colon at 15 to 30 mg/kg administered via gavage for 10 days; assay type: functional, organism-based; details: dose 15-30 mg/kg, time 10.0 day
# [7] = Acute toxicity in ICR mouse assessed as heart pathological change at 1500 mg/kg, po administered daily for 7 days by H and E staining based analysis; assay type: organism-based; details: in vivo, 168 h, time 7 day
# Mus musculus [8] = assay: Anti-inflammatory activity in DSS-induced ulcerative colitis male C57BL/6 mouse model assessed as reduction in IL-1 beta expression in colon administered via gavage for 10 days by ELISA; assay type: functional, organism-based; details: dose 15-60 mg/kg, time 10.0 day
# [9] = Acute toxicity in ICR mouse assessed as change in white blood cell count in blood at 1500 mg/kg, po administered daily for 7 days; assay type: organism-based; details: in vivo, 168 h, time 7 day
# [10] = Acute toxicity in ICR mouse assessed as liver pathological change at 1500 mg/kg, po administered daily for 7 days by H and E staining based analysis; assay type: organism-based; details: in vivo, 168 h, time 7 day
# [11] = Half life in male Sprague-Dawley rat at 10 mg/kg, po measured at 5 to 1440 mins by LC-MS/MS analysis; assay type: ADME, organism-based; details: in vivo, time 5-1440 min
# Mus musculus [12] = assay: Anti-inflammatory activity in DSS-induced ulcerative colitis male C57BL/6 mouse model assessed as reduction in crypt loss in colon at 60 mg/kg administered via gavage for 10 days by H and E staining based analysis; assay type: functional, organism-based; details: time 10.0 day
# [13] = molecular target: T1, Myeloblastin (Mus musculus); assay: In vivo inhibition of proteinase 3 in C57BL/6 mouse assessed as reduction in proteinase 3 activity in blood at 30 mg/kg, po administered once daily for 6 days by fluorescence based microplate reader relative to control; assay type: functional, organism-based; details: time 6.0 day
# [14] = molecular target: T3, Neutrophil elastase (Mus musculus) (UniProt Q3UP87); assay: In vivo inhibition of neutrophil elastase in C57BL/6 mouse assessed as reduction in neutrophil elastase activity in bone marrow at 30 mg/kg, po administered once daily for 6 days by fluorescence based microplate reader relative to control; assay type: functional, organism-based; details: time 6.0 day
# T3 sequence (whole entry): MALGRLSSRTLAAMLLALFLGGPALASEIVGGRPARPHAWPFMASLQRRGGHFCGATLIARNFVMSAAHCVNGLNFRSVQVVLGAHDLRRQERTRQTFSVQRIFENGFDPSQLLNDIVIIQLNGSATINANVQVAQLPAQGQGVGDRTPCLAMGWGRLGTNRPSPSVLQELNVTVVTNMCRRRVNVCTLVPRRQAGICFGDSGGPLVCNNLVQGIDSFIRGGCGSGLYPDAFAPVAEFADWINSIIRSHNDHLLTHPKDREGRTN
# [15] = molecular target: T4, Cathepsin G (Mus musculus) (UniProt P28293); assay: Induction of Cathepsin G degradation in C57BL/6 mouse bone marrow cells assessed as remaining activity at 10 uM incubated for 12 hrs by Western blot analysis relative to control; assay type: cell-based; details: Bone marrow cell
# T4 sequence (whole entry): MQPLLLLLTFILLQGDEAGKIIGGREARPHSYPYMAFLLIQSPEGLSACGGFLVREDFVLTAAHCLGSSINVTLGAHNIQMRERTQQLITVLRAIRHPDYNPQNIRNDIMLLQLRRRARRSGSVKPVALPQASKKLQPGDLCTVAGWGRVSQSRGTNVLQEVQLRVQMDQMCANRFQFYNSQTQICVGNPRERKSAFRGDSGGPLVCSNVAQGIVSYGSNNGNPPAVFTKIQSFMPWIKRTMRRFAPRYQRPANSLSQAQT
# [16] = MRT in male Sprague-Dawley rat at 2 mg/kg, iv measured at 5 to 1440 mins by LC-MS/MS analysis; assay type: ADME, organism-based; details: in vivo, time 5-1440 min
# RAW264.7 [17] = assay: Anti-inflammatory activity in LPS-stimulated mouse RAW264.7 cells assessed as reduction in TNF-alpha production incubated for 24 hrs by ELISA; assay type: functional, cell-based; details: dose 0.62-5 µM
# Mus musculus [18] = assay: Anti-inflammatory activity in DSS-induced ulcerative colitis male C57BL/6 mouse model assessed as reduction in GM-CSF expression in serum administered via gavage for 10 days by ELISA; assay type: functional, organism-based; details: dose 15-60 mg/kg, time 10.0 day
# Mus musculus [19] = assay: Anti-inflammatory activity in DSS-induced ulcerative colitis male C57BL/6 mouse model assessed as reduction in Cathepsin C level in colon at 15 to 30 mg/kg administered via gavage for 10 days; assay type: functional, organism-based; details: dose 15-30 mg/kg, time 10.0 day
# Mus musculus [20] = assay: Anti-inflammatory activity in DSS-induced ulcerative colitis male C57BL/6 mouse model assessed as increase in colon length administered via gavage for 10 days; assay type: functional, organism-based; details: dose 15-60 mg/kg, time 10.0 day
# [21] = Acute toxicity in ICR mouse assessed as body weight loss at 500 mg/kg, po administered twice daily for 7 days; assay type: organism-based; details: in vivo, 168 h, time 7 day
smiles,measurement,setting,value
O=C1Nc2c(cccc2-c2ccc(NC3CCOCC3)cc2)/C1=C/c1ccnc2ccccc12,Activity,RAW264.7 [1],Dose-dependent-effect
same,inhibition,[2],58.6%
same,inhibition,[3],36.5%
same,Activity,Mus musculus [4],Active; Therapeutic Effect Is Slightly Better Than 5-Asa But Worse Than Azd7986
same,Activity,Mus musculus [5],50%
same,Activity,Mus musculus [6],inactive
same,Activity,[7],Non-toxic
same,Activity,Mus musculus [8],Dose-dependent-effect; Significant Reduction Observed In High Dose Group
same,Activity,[9],Non-toxic
same,Activity,[10],Non-toxic
same,half-life,[11],1.76 h
same,Activity,Mus musculus [12],Active
same,inhibition,[13],44.8%
same,inhibition,[14],59.1%
same,Activity,[15],75%
same,MRT,[16],10.48 h
same,Activity,RAW264.7 [17],Dose-dependent-effect
same,Activity,Mus musculus [18],Dose-dependent-effect; Significant Reduction Observed In High Dose Group
same,Activity,Mus musculus [19],inactive
same,Activity,Mus musculus [20],Dose-dependent-effect
same,Activity,[21],Non-toxic

# From ChEMBL document CHEMBL6092168, “Identification of novel indolinone derivatives as CTSC inhibitors to treat inflammatory bowel disease by modulating inflammatory factors” (Eur J Med Chem, 2024)
